Assay results published in PubChem BioAssay AID2060508 (Molecular Pharmacology Branch, DTP, NCI, 2025).
pIC50: −log10 of the molar value. Each block holds one compound with its values, some of them ahead of it.

Tested on: 454973-116-R2-J3-PDC spheroids, viability, % test/control
Test: Anticancer human tumor 454973-116-R2-J3-PDC patient-derived pancreatic carcinoma cell line growth inhibition [GQUAD]
Settings: spheroids with HUVEC and MSC; for pIC50: curve of first compound; for viability, T/C: stronger effect = lower value
How it was run: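 Viability of tumor cells grown as complex spheroids with endothelial and stromal cells, exposed to drug combinations. Top concentration at or near clinical Cmax (else 10 microM), diluted in half-log increments.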

[1] = second compound 0.0316 µM, first compound 0.0316 µM
[2] = second compound 0.0316 µM, first compound 0.1 µM
[3] = second compound 0.0316 µM, first compound 0.316 µM
[4] = second compound 0.0316 µM, first compound 1 µM
[5] = second compound 0.0316 µM, first compound 3.16 µM
[6] = second compound 0.0316 µM, first compound 10 µM
[7] = second compound 0.1 µM, first compound 0.0316 µM
[8] = second compound 0.1 µM, first compound 0.1 µM
[9] = second compound 0.1 µM, first compound 0.316 µM
[10] = second compound 0.1 µM, first compound 1 µM
[11] = second compound 0.1 µM, first compound 3.16 µM
[12] = second compound 0.1 µM, first compound 10 µM
[13] = second compound 0.316 µM, first compound 0.0316 µM
[14] = second compound 0.316 µM, first compound 0.1 µM
[15] = second compound 0.316 µM, first compound 0.316 µM
[16] = second compound 0.316 µM, first compound 1 µM
[17] = second compound 0.316 µM, first compound 3.16 µM
[18] = second compound 0.316 µM, first compound 10 µM
[19] = second compound 1 µM, first compound 0.0316 µM
[20] = second compound 1 µM, first compound 0.1 µM
[21] = second compound 1 µM, first compound 0.316 µM
[22] = second compound 1 µM, first compound 1 µM
[23] = second compound 1 µM, first compound 3.16 µM
[24] = second compound 1 µM, first compound 10 µM
[25] = second compound 3.16 µM, first compound 0.0316 µM
[26] = second compound 3.16 µM, first compound 0.1 µM
[27] = second compound 3.16 µM, first compound 0.316 µM
[28] = second compound 3.16 µM, first compound 1 µM
[29] = second compound 3.16 µM, first compound 3.16 µM
[30] = second compound 3.16 µM, first compound 10 µM
[31] = second compound 10 µM, first compound 0.0316 µM
[32] = second compound 10 µM, first compound 0.1 µM
[33] = second compound 10 µM, first compound 0.316 µM
[34] = second compound 10 µM, first compound 1 µM
[35] = second compound 10 µM, first compound 3.16 µM
[36] = second compound 10 µM, first compound 10 µM
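Further: spheroids exposed to compounds for seven days.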
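Wherever viability, T/C is given: 100% = DMSO vehicle control viability.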

pIC50 (second compound 0.0316 µM): > 7.50
pIC50 (second compound 0.1 µM): > 7.50
pIC50 (second compound 0.316 µM): > 7.50
pIC50 (second compound 1 µM): > 7.50
pIC50 (second compound 3.16 µM): > 7.50
pIC50 (second compound 10 µM): > 7.50
Compound: C#Cc1c(F)ccc2cc(O)cc(-c3ncc4c(N5CC6CCC(C5)N6)nc(OCC56CCCN5CC(F)C6)nc4c3F)c12 (stereo not given) + Cc1cnc(CNC(=O)c2c(=O)c3ccc(N4CCCN(C)CC4)nc3n3c2sc2ccccc23)cn1
viability, T/C [1]: 45.9%
viability, T/C [2]: 40.8%
viability, T/C [3]: 28.3%
viability, T/C [4]: 23.2%
viability, T/C [5]: 20.3%
viability, T/C [6]: 17.8%
viability, T/C [7]: 41.9%
viability, T/C [8]: 33.3%
viability, T/C [9]: 24%
viability, T/C [10]: 20.1%
viability, T/C [11]: 17.1%
viability, T/C [12]: 16.1%
viability, T/C [13]: 41.7%
viability, T/C [14]: 24.4%
viability, T/C [15]: 17.4%
viability, T/C [16]: 17.1%
viability, T/C [17]: 14.3%
viability, T/C [18]: 11.4%
viability, T/C [19]: 36.6%
viability, T/C [20]: 24.2%
viability, T/C [21]: 19%
viability, T/C [22]: 16.5%
viability, T/C [23]: 13.2%
viability, T/C [24]: 10.7%
viability, T/C [25]: 36.5%
viability, T/C [26]: 22.6%
viability, T/C [27]: 19.3%
viability, T/C [28]: 12.6%
viability, T/C [29]: 9.16%
viability, T/C [30]: 4.35%
viability, T/C [31]: 0.16%
viability, T/C [32]: 0.43%
viability, T/C [33]: 0.47%
viability, T/C [34]: 0.12%
viability, T/C [35]: 0.27%
viability, T/C [36]: 0.18%

pIC50 (second compound 0.0316 µM): > 7.50
pIC50 (second compound 0.1 µM): > 7.50
pIC50 (second compound 0.316 µM): > 7.50
pIC50 (second compound 1 µM): > 7.50
pIC50 (second compound 3.16 µM): > 7.50
pIC50 (second compound 10 µM): > 7.50
Compound: CC(=O)O[C@H]1C(=O)[C@@]2(C)[C@H]([C@H](OC(=O)c3ccccc3)[C@]3(O)C[C@H](OC(=O)[C@H](O)[C@@H](NC(=O)c4ccccc4)c4ccccc4)C(C)=C1C3(C)C)[C@]1(OC(C)=O)CO[C@@H]1C[C@@H]2O + Cc1cnc(CNC(=O)c2c(=O)c3ccc(N4CCCN(C)CC4)nc3n3c2sc2ccccc23)cn1
viability, T/C [1]: 17.2%
viability, T/C [2]: 12.7%
viability, T/C [3]: 10.7%
viability, T/C [4]: 7.9%
viability, T/C [5]: 9.07%
viability, T/C [6]: 11.3%
viability, T/C [7]: 20.6%
viability, T/C [8]: 16.3%
viability, T/C [9]: 9.56%
viability, T/C [10]: 9.77%
viability, T/C [11]: 11.2%
viability, T/C [12]: 15.5%
viability, T/C [13]: 27.5%
viability, T/C [14]: 17.2%
viability, T/C [15]: 17.9%
viability, T/C [16]: 15.7%
viability, T/C [17]: 15.3%
viability, T/C [18]: 19.6%
viability, T/C [19]: 33.9%
viability, T/C [20]: 28.3%
viability, T/C [21]: 23.3%
viability, T/C [22]: 25.7%
viability, T/C [23]: 24.8%
viability, T/C [24]: 30.4%
viability, T/C [25]: 42.4%
viability, T/C [26]: 36.2%
viability, T/C [27]: 32.1%
viability, T/C [28]: 26.5%
viability, T/C [29]: 34.1%
viability, T/C [30]: 37.1%
viability, T/C [31]: 0.12%
viability, T/C [32]: 1.08%
viability, T/C [33]: 0.19%
viability, T/C [34]: 0.17%
viability, T/C [35]: 0.19%
viability, T/C [36]: 0.21%

pIC50 (second compound 0.0316 µM): 5.19
pIC50 (second compound 0.1 µM): 5.22
pIC50 (second compound 0.316 µM): 5.29
pIC50 (second compound 1 µM): 5.37
pIC50 (second compound 3.16 µM): 5.29
pIC50 (second compound 10 µM): > 7.50
Compound: CCCS(=O)(=O)Nc1ccc(F)c(C(=O)c2c[nH]c3ncc(-c4ccc(Cl)cc4)cc23)c1F + Cc1cnc(CNC(=O)c2c(=O)c3ccc(N4CCCN(C)CC4)nc3n3c2sc2ccccc23)cn1
viability, T/C [1]: 94.2%
viability, T/C [2]: 105%
viability, T/C [3]: 117%
viability, T/C [4]: 106%
viability, T/C [5]: 117%
viability, T/C [6]: 14.1%
viability, T/C [7]: 77.4%
viability, T/C [8]: 88%
viability, T/C [9]: 99%
viability, T/C [10]: 94.6%
viability, T/C [11]: 95.2%
viability, T/C [12]: 17.3%
viability, T/C [13]: 70.7%
viability, T/C [14]: 73.4%
viability, T/C [15]: 79.5%
viability, T/C [16]: 96%
viability, T/C [17]: 70.9%
viability, T/C [18]: 20.2%
viability, T/C [19]: 65.9%
viability, T/C [20]: 71.9%
viability, T/C [21]: 80.2%
viability, T/C [22]: 66.4%
viability, T/C [23]: 60.2%
viability, T/C [24]: 21.9%
viability, T/C [25]: 55.1%
viability, T/C [26]: 62.2%
viability, T/C [27]: 72.3%
viability, T/C [28]: 67.9%
viability, T/C [29]: 68.3%
viability, T/C [30]: 29.2%
viability, T/C [31]: 0.45%
viability, T/C [32]: 18.1%
viability, T/C [33]: 28.6%
viability, T/C [34]: 35.6%
viability, T/C [35]: 0.54%
viability, T/C [36]: 0.2%

pIC50 (second compound 0.0316 µM): 7.22
pIC50 (second compound 0.1 µM): 7.24
pIC50 (second compound 0.316 µM): 7.30
pIC50 (second compound 1 µM): 7.38
pIC50 (second compound 3.16 µM): 7.46
pIC50 (second compound 10 µM): > 9.00
Compound: Cc1[nH]c2ccccc2c1CCNCc1ccc(/C=C/C(=O)NO)cc1 + Cc1cnc(CNC(=O)c2c(=O)c3ccc(N4CCCN(C)CC4)nc3n3c2sc2ccccc23)cn1
viability, T/C (second compound 0.0316 µM, first compound 0.000999 µM): 96%
viability, T/C (second compound 0.0316 µM, first compound 0.00316 µM): 97.9%
viability, T/C (second compound 0.0316 µM, first compound 0.00999 µM): 106%
viability, T/C [1]: 76.2%
viability, T/C (second compound 0.0316 µM, first compound 0.0999 µM): 27.9%
viability, T/C [3]: 3.29%
viability, T/C (second compound 0.1 µM, first compound 0.000999 µM): 84.4%
viability, T/C (second compound 0.1 µM, first compound 0.00316 µM): 74.9%
viability, T/C (second compound 0.1 µM, first compound 0.00999 µM): 79.2%
viability, T/C [7]: 69.8%
viability, T/C (second compound 0.1 µM, first compound 0.0999 µM): 31.1%
viability, T/C [9]: 4.46%
viability, T/C (second compound 0.316 µM, first compound 0.000999 µM): 69.7%
viability, T/C (second compound 0.316 µM, first compound 0.00316 µM): 71.8%
viability, T/C (second compound 0.316 µM, first compound 0.00999 µM): 74.2%
viability, T/C [13]: 67.1%
viability, T/C (second compound 0.316 µM, first compound 0.0999 µM): 24.9%
viability, T/C [15]: 2.72%
viability, T/C (second compound 1 µM, first compound 0.000999 µM): 61.3%
viability, T/C (second compound 1 µM, first compound 0.00316 µM): 63.2%
viability, T/C (second compound 1 µM, first compound 0.00999 µM): 61.5%
viability, T/C [19]: 57.1%
viability, T/C (second compound 1 µM, first compound 0.0999 µM): 27.5%
viability, T/C [21]: 0.21%
viability, T/C (second compound 3.16 µM, first compound 0.000999 µM): 56.4%
viability, T/C (second compound 3.16 µM, first compound 0.00316 µM): 64.3%
viability, T/C (second compound 3.16 µM, first compound 0.00999 µM): 59.1%
viability, T/C [25]: 52.4%
viability, T/C (second compound 3.16 µM, first compound 0.0999 µM): 21%
viability, T/C [27]: 0.16%
viability, T/C (second compound 10 µM, first compound 0.000999 µM): 0.26%
viability, T/C (second compound 10 µM, first compound 0.00316 µM): 19.2%
viability, T/C (second compound 10 µM, first compound 0.00999 µM): 43.2%
viability, T/C [31]: 31.6%
viability, T/C (second compound 10 µM, first compound 0.0999 µM): 0.77%
viability, T/C [33]: 0.47%

pIC50 (second compound 0.0316 µM): 5.79
pIC50 (second compound 0.1 µM): 5.66
pIC50 (second compound 0.316 µM): < 5.00
pIC50 (second compound 1 µM): < 5.00
pIC50 (second compound 3.16 µM): < 5.00
pIC50 (second compound 10 µM): > 7.50
Compound: O=c1[nH]cc(F)c(=O)[nH]1 + Cc1cnc(CNC(=O)c2c(=O)c3ccc(N4CCCN(C)CC4)nc3n3c2sc2ccccc23)cn1
viability, T/C [1]: 103%
viability, T/C [2]: 92.6%
viability, T/C [3]: 98.9%
viability, T/C [4]: 59.6%
viability, T/C [5]: 33.9%
viability, T/C [6]: 40.7%
viability, T/C [7]: 89.7%
viability, T/C [8]: 90.1%
viability, T/C [9]: 78.6%
viability, T/C [10]: 66.3%
viability, T/C [11]: 37.9%
viability, T/C [12]: 44.8%
viability, T/C [13]: 73.8%
viability, T/C [14]: 84.2%
viability, T/C [15]: 78.1%
viability, T/C [16]: 60.2%
viability, T/C [17]: 46.5%
viability, T/C [18]: 53.8%
viability, T/C [19]: 66.8%
viability, T/C [20]: 67.2%
viability, T/C [21]: 79.4%
viability, T/C [22]: 60.7%
viability, T/C [23]: 50.1%
viability, T/C [24]: 52.3%
viability, T/C [25]: 62.1%
viability, T/C [26]: 64.4%
viability, T/C [27]: 64.2%
viability, T/C [28]: 57.3%
viability, T/C [29]: 59.3%
viability, T/C [30]: 53.9%
viability, T/C [31]: 0.72%
viability, T/C [32]: 17.2%
viability, T/C [33]: 52.7%
viability, T/C [34]: 48%
viability, T/C [35]: 18.3%
viability, T/C [36]: 0.22%
